Results as given in patent US20250223268A1, “4-Methylsulfonylbenzamide Compound, Preparation Method, Herbicidal Composition And Use” (Jiangsu Flag Chemical Industry Co., Ltd., priority 2022, published 2025).

These molecules were tested on Leptochloa chinensis (assay: Greenhouse herbicidal activity assay, post-emergence). Conditions: Post-emergence test, rate 150 g a.i./hm^2; grade by fresh weight inhibition rate.
Assay type: in vivo
In short: (§1)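 Foliar spray at 3-6 leaves; pot-grown in nutrient soil in growth chamber; air-dried post-spray. Read-out at 14-21 d: fresh weight inhibition, graded A (≥80% to 100%) down to E (<20%); NT = not tested.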

Structure (SMILES)	Control efficacy grade, Leptochloa chinensis
CS(=O)(=O)c1ccc(C(=O)Nc2nnc(C3CC3)o2)c(Cl)c1[S+]([O-])C1CCCCC1 (racemic) [Compound 3-667]	A (Fresh weight inhibition rate≥80% to 100%)
C=CC[S+]([O-])c1c(S(C)(=O)=O)ccc(C(=O)Nc2nnc(C3CC3)o2)c1Cl (racemic) [Compound 3-687]	A (Fresh weight inhibition rate≥80% to 100%)
CS(=O)(=O)c1ccc(C(=O)Nc2nnc(C3CC3)o2)c(Cl)c1[S+]([O-])C(F)(F)C(F)(F)F (racemic) [Compound 3-692]	A (Fresh weight inhibition rate≥80% to 100%)
CS(=O)(=O)c1ccc(C(=O)Nc2nnc(C3CC3)o2)c(Cl)c1[S+]([O-])CCCl (racemic) [Compound 3-727]	A (Fresh weight inhibition rate≥80% to 100%)
CCCC[S+]([O-])c1c(S(C)(=O)=O)ccc(C(=O)Nc2nonc2C)c1Cl (racemic) [Compound 4-12]	B (Fresh weight inhibition rate≥260% to <80%)
Cc1nonc1NC(=O)c1ccc(S(C)(=O)=O)c([S+]([O-])C2CC2)c1Cl (racemic) [Compound 4-38]	A (Fresh weight inhibition rate≥80% to 100%)
Cc1nonc1NC(=O)c1ccc(S(C)(=O)=O)c([S+]([O-])C2CCC2)c1Cl (racemic) [Compound 4-43]	A (Fresh weight inhibition rate≥80% to 100%)
CCC[S+]([O-])c1c(S(C)(=O)=O)ccc(C(=O)Nc2nnnn2C)c1Cl (single isomer, unassigned) [Compound 1-3]	A (Fresh weight inhibition rate≥80% to 100%)
CCC[S+]([O-])c1c(S(C)(=O)=O)ccc(C(=O)Nc2nnnn2C)c1Cl (single isomer, unassigned) [Compound 1-4]	A (Fresh weight inhibition rate≥80% to 100%)
CC(C)[S+]([O-])c1c(S(C)(=O)=O)ccc(C(=O)Nc2nnnn2C)c1Cl (single isomer, unassigned) [Compound 1-8]	A (Fresh weight inhibition rate≥80% to 100%)
CC(C)[S+]([O-])c1c(S(C)(=O)=O)ccc(C(=O)Nc2ncnn2C)c1Cl (single isomer, unassigned) [Compound 2-8]	A (Fresh weight inhibition rate≥80% to 100%)
CC(C)[S+]([O-])c1c(S(C)(=O)=O)ccc(C(=O)Nc2ncnn2C)c1Cl (single isomer, unassigned) [Compound 2-9]	A (Fresh weight inhibition rate≥80% to 100%)

What follows are molecules tested on Echinochloa crusgalli in the same assay as above. Conditions: Post-emergence test, rate 150 g a.i./hm^2; grade by fresh weight inhibition rate.
Assay type: in vivo
In short: as §1

Structure (SMILES)	Control efficacy grade, Echinochloa crusgalli
CS(=O)(=O)c1ccc(C(=O)Nc2nnc(C3CC3)o2)c(Cl)c1[S+]([O-])C1CCCCC1 (racemic) [Compound 3-667]	C (Fresh weight inhibition rate≥40% to <60%)
C=CC[S+]([O-])c1c(S(C)(=O)=O)ccc(C(=O)Nc2nnc(C3CC3)o2)c1Cl (racemic) [Compound 3-687]	B (Fresh weight inhibition rate≥260% to <80%)
CS(=O)(=O)c1ccc(C(=O)Nc2nnc(C3CC3)o2)c(Cl)c1[S+]([O-])C(F)(F)C(F)(F)F (racemic) [Compound 3-692]	A (Fresh weight inhibition rate≥80% to 100%)
CS(=O)(=O)c1ccc(C(=O)Nc2nnc(C3CC3)o2)c(Cl)c1[S+]([O-])CCCl (racemic) [Compound 3-727]	A (Fresh weight inhibition rate≥80% to 100%)
CCCC[S+]([O-])c1c(S(C)(=O)=O)ccc(C(=O)Nc2nonc2C)c1Cl (racemic) [Compound 4-12]	A (Fresh weight inhibition rate≥80% to 100%)
Cc1nonc1NC(=O)c1ccc(S(C)(=O)=O)c([S+]([O-])C2CC2)c1Cl (racemic) [Compound 4-38]	A (Fresh weight inhibition rate≥80% to 100%)
Cc1nonc1NC(=O)c1ccc(S(C)(=O)=O)c([S+]([O-])C2CCC2)c1Cl (racemic) [Compound 4-43]	A (Fresh weight inhibition rate≥80% to 100%)
CCC[S+]([O-])c1c(S(C)(=O)=O)ccc(C(=O)Nc2nnnn2C)c1Cl (single isomer, unassigned) [Compound 1-3]	A (Fresh weight inhibition rate≥80% to 100%)
CCC[S+]([O-])c1c(S(C)(=O)=O)ccc(C(=O)Nc2nnnn2C)c1Cl (single isomer, unassigned) [Compound 1-4]	A (Fresh weight inhibition rate≥80% to 100%)
CC(C)[S+]([O-])c1c(S(C)(=O)=O)ccc(C(=O)Nc2nnnn2C)c1Cl (single isomer, unassigned) [Compound 1-8]	A (Fresh weight inhibition rate≥80% to 100%)
CC(C)[S+]([O-])c1c(S(C)(=O)=O)ccc(C(=O)Nc2ncnn2C)c1Cl (single isomer, unassigned) [Compound 2-8]	A (Fresh weight inhibition rate≥80% to 100%)
CC(C)[S+]([O-])c1c(S(C)(=O)=O)ccc(C(=O)Nc2ncnn2C)c1Cl (single isomer, unassigned) [Compound 2-9]	A (Fresh weight inhibition rate≥80% to 100%)

What follows are molecules tested on Digitaria sanguinalis in the same assay as above. Conditions: Post-emergence test, rate 150 g a.i./hm^2; grade by fresh weight inhibition rate.
Assay type: in vivo
In short: as §1

Structure (SMILES)	Control efficacy grade, Digitaria sanguinalis
CS(=O)(=O)c1ccc(C(=O)Nc2nnc(C3CC3)o2)c(Cl)c1[S+]([O-])C1CCCCC1 (racemic) [Compound 3-667]	A (Fresh weight inhibition rate≥80% to 100%)
C=CC[S+]([O-])c1c(S(C)(=O)=O)ccc(C(=O)Nc2nnc(C3CC3)o2)c1Cl (racemic) [Compound 3-687]	A (Fresh weight inhibition rate≥80% to 100%)
CS(=O)(=O)c1ccc(C(=O)Nc2nnc(C3CC3)o2)c(Cl)c1[S+]([O-])C(F)(F)C(F)(F)F (racemic) [Compound 3-692]	A (Fresh weight inhibition rate≥80% to 100%)
CS(=O)(=O)c1ccc(C(=O)Nc2nnc(C3CC3)o2)c(Cl)c1[S+]([O-])CCCl (racemic) [Compound 3-727]	A (Fresh weight inhibition rate≥80% to 100%)
CCCC[S+]([O-])c1c(S(C)(=O)=O)ccc(C(=O)Nc2nonc2C)c1Cl (racemic) [Compound 4-12]	A (Fresh weight inhibition rate≥80% to 100%)
Cc1nonc1NC(=O)c1ccc(S(C)(=O)=O)c([S+]([O-])C2CC2)c1Cl (racemic) [Compound 4-38]	A (Fresh weight inhibition rate≥80% to 100%)
Cc1nonc1NC(=O)c1ccc(S(C)(=O)=O)c([S+]([O-])C2CCC2)c1Cl (racemic) [Compound 4-43]	A (Fresh weight inhibition rate≥80% to 100%)
CCC[S+]([O-])c1c(S(C)(=O)=O)ccc(C(=O)Nc2nnnn2C)c1Cl (single isomer, unassigned) [Compound 1-3]	A (Fresh weight inhibition rate≥80% to 100%)
CCC[S+]([O-])c1c(S(C)(=O)=O)ccc(C(=O)Nc2nnnn2C)c1Cl (single isomer, unassigned) [Compound 1-4]	A (Fresh weight inhibition rate≥80% to 100%)
CC(C)[S+]([O-])c1c(S(C)(=O)=O)ccc(C(=O)Nc2nnnn2C)c1Cl (single isomer, unassigned) [Compound 1-8]	A (Fresh weight inhibition rate≥80% to 100%)
CC(C)[S+]([O-])c1c(S(C)(=O)=O)ccc(C(=O)Nc2ncnn2C)c1Cl (single isomer, unassigned) [Compound 2-8]	A (Fresh weight inhibition rate≥80% to 100%)
CC(C)[S+]([O-])c1c(S(C)(=O)=O)ccc(C(=O)Nc2ncnn2C)c1Cl (single isomer, unassigned) [Compound 2-9]	A (Fresh weight inhibition rate≥80% to 100%)

Each molecule was assayed on Eclipta prostrata in the same assay as above. Conditions: Post-emergence test, rate 150 g a.i./hm^2; grade by fresh weight inhibition rate.
Assay type: in vivo
In short: as §1

Structure (SMILES)	Control efficacy grade, Eclipta prostrata
CS(=O)(=O)c1ccc(C(=O)Nc2nnc(C3CC3)o2)c(Cl)c1[S+]([O-])C1CCCCC1 (racemic) [Compound 3-667]	A (Fresh weight inhibition rate≥80% to 100%)
C=CC[S+]([O-])c1c(S(C)(=O)=O)ccc(C(=O)Nc2nnc(C3CC3)o2)c1Cl (racemic) [Compound 3-687]	A (Fresh weight inhibition rate≥80% to 100%)
CS(=O)(=O)c1ccc(C(=O)Nc2nnc(C3CC3)o2)c(Cl)c1[S+]([O-])C(F)(F)C(F)(F)F (racemic) [Compound 3-692]	A (Fresh weight inhibition rate≥80% to 100%)
CS(=O)(=O)c1ccc(C(=O)Nc2nnc(C3CC3)o2)c(Cl)c1[S+]([O-])CCCl (racemic) [Compound 3-727]	A (Fresh weight inhibition rate≥80% to 100%)
CCCC[S+]([O-])c1c(S(C)(=O)=O)ccc(C(=O)Nc2nonc2C)c1Cl (racemic) [Compound 4-12]	A (Fresh weight inhibition rate≥80% to 100%)
Cc1nonc1NC(=O)c1ccc(S(C)(=O)=O)c([S+]([O-])C2CC2)c1Cl (racemic) [Compound 4-38]	A (Fresh weight inhibition rate≥80% to 100%)
Cc1nonc1NC(=O)c1ccc(S(C)(=O)=O)c([S+]([O-])C2CCC2)c1Cl (racemic) [Compound 4-43]	A (Fresh weight inhibition rate≥80% to 100%)
CCC[S+]([O-])c1c(S(C)(=O)=O)ccc(C(=O)Nc2nnnn2C)c1Cl (single isomer, unassigned) [Compound 1-3]	A (Fresh weight inhibition rate≥80% to 100%)
CCC[S+]([O-])c1c(S(C)(=O)=O)ccc(C(=O)Nc2nnnn2C)c1Cl (single isomer, unassigned) [Compound 1-4]	A (Fresh weight inhibition rate≥80% to 100%)
CC(C)[S+]([O-])c1c(S(C)(=O)=O)ccc(C(=O)Nc2nnnn2C)c1Cl (single isomer, unassigned) [Compound 1-8]	A (Fresh weight inhibition rate≥80% to 100%)
CC(C)[S+]([O-])c1c(S(C)(=O)=O)ccc(C(=O)Nc2ncnn2C)c1Cl (single isomer, unassigned) [Compound 2-8]	A (Fresh weight inhibition rate≥80% to 100%)
CC(C)[S+]([O-])c1c(S(C)(=O)=O)ccc(C(=O)Nc2ncnn2C)c1Cl (single isomer, unassigned) [Compound 2-9]	A (Fresh weight inhibition rate≥80% to 100%)

These molecules were tested on Cyperus iria in the same assay as above. Conditions: Post-emergence test, rate 150 g a.i./hm^2; grade by fresh weight inhibition rate.
Assay type: in vivo
In short: as §1

Structure (SMILES)	Control efficacy grade, Cyperus iria
CS(=O)(=O)c1ccc(C(=O)Nc2nnc(C3CC3)o2)c(Cl)c1[S+]([O-])C1CCCCC1 (racemic) [Compound 3-667]	A (Fresh weight inhibition rate≥80% to 100%)
C=CC[S+]([O-])c1c(S(C)(=O)=O)ccc(C(=O)Nc2nnc(C3CC3)o2)c1Cl (racemic) [Compound 3-687]	A (Fresh weight inhibition rate≥80% to 100%)
CS(=O)(=O)c1ccc(C(=O)Nc2nnc(C3CC3)o2)c(Cl)c1[S+]([O-])C(F)(F)C(F)(F)F (racemic) [Compound 3-692]	A (Fresh weight inhibition rate≥80% to 100%)
CS(=O)(=O)c1ccc(C(=O)Nc2nnc(C3CC3)o2)c(Cl)c1[S+]([O-])CCCl (racemic) [Compound 3-727]	A (Fresh weight inhibition rate≥80% to 100%)
CCCC[S+]([O-])c1c(S(C)(=O)=O)ccc(C(=O)Nc2nonc2C)c1Cl (racemic) [Compound 4-12]	A (Fresh weight inhibition rate≥80% to 100%)
Cc1nonc1NC(=O)c1ccc(S(C)(=O)=O)c([S+]([O-])C2CC2)c1Cl (racemic) [Compound 4-38]	A (Fresh weight inhibition rate≥80% to 100%)
Cc1nonc1NC(=O)c1ccc(S(C)(=O)=O)c([S+]([O-])C2CCC2)c1Cl (racemic) [Compound 4-43]	A (Fresh weight inhibition rate≥80% to 100%)
CCC[S+]([O-])c1c(S(C)(=O)=O)ccc(C(=O)Nc2nnnn2C)c1Cl (single isomer, unassigned) [Compound 1-3]	A (Fresh weight inhibition rate≥80% to 100%)
CCC[S+]([O-])c1c(S(C)(=O)=O)ccc(C(=O)Nc2nnnn2C)c1Cl (single isomer, unassigned) [Compound 1-4]	A (Fresh weight inhibition rate≥80% to 100%)
CC(C)[S+]([O-])c1c(S(C)(=O)=O)ccc(C(=O)Nc2nnnn2C)c1Cl (single isomer, unassigned) [Compound 1-8]	A (Fresh weight inhibition rate≥80% to 100%)
CC(C)[S+]([O-])c1c(S(C)(=O)=O)ccc(C(=O)Nc2ncnn2C)c1Cl (single isomer, unassigned) [Compound 2-8]	A (Fresh weight inhibition rate≥80% to 100%)
CC(C)[S+]([O-])c1c(S(C)(=O)=O)ccc(C(=O)Nc2ncnn2C)c1Cl (single isomer, unassigned) [Compound 2-9]	A (Fresh weight inhibition rate≥80% to 100%)
